Tested on: lymphocytes isolated from Balb/C mice
Assay: lymphocyte cell proliferation assay
Assay type: cell-based
Settings: LPS at 1 μg/ml (table prints concentration n/a)
Procedure: The effects of the ginseng extracts produced during these studies, on cell proliferation of lymphocytes isolated from Balb/C mice were assessed by the methods disclosed in Chapters 2 and 3 in Current Protocols in Immunology, (Coligan et al., Eds, 2007, John Wiley & Sons). A first positive control was lipopolysaccharide (LPS) at a concentration of 1 μg/ml. LPS (Prod. L4641) was supplied by Sigma-Aldrich Canada (Oakville, ON, Canada). A commercially available poly-furanosyl-pyranosyl-saccharide-rich ginseng extract, Cold-FX® (Cold-FX is a registered trademark of CV Technologies Inc., Edmonton, Alberta, Canada), was obtained from a local supermarket, and was used for comparison as a second positive control. The effects of the positive controls and the ginseng extracts produced by the three studies described herein on cell proliferation are shown in Table 1. […]
The bioactivity of the dried ginseng extract produced with the pilot scale process disclosed herein was assessed using the assay, related methods, positive and negative controls as described in Example 1.
The biological activity of the dried ginseng extracts produced from alcohol-washed dried ginseng meal during the first study of this example was assessed using the assay and methods described in Example 1, and the results compared to the positive control #2 described in Example 1.

lipopolysaccharide [Positive control #1 (LPS)]
Optical Density (lymphocyte cell proliferation): 0.361
